Laboratory results reported in patent publication US10646477B1, “5-substituted 2,4-thiazolidinediones (thiohydantoins), pseudothiohydantoins, and propseudothiohydantoins for use as antiviral agents” (Jiva Pharma, Inc., priority 2015, dated 2020).
pEC50: −log10 of the molar value. ≈ marks a conversion by molar mass, not a printed value. Like-named read-outs stand apart in the source and are kept apart here.

Tests used:
HSV-2 [1] = experiment: CellTiter-Glo (Cytopathic effect/Toxicity) antiviral assay, U of Alabama / NIH; format: cell-based, Herpes simplex virus type 2
From the text: (§1) General Outline of in vitro biology Study: The overall goal of this study was to perform a preliminary evaluation of gross toxicity as well as antiviral effectiveness against HSV-1 and HSV-2, and VZV virus of several pharmaceutical preparations. The HSV-1 and HSV-2 antiviral activity in an in vitro infection system was studied, at the Louisiana State University, Health Sciences System, in New Orleans, and all three above at the University of Alabama, NIAID sponsored laboratories.

[2] = CellTiter-Glo toxicity (CC50), U of Alabama / NIH
HSV-2 [3] = experiment: Viral yield reduction assay relative to mock treated controls, LSU; format: cell-based, Herpes simplex virus type 2
From the text: as §1
(§2) The yield reduction assay (YRA) was used in determining antiviral activity of test compounds such as JIVA Compounds, controls and standards. The virus yield reduction assay is a powerful technique for evaluating the efficacy of antiviral compounds. Monolayer cultures of mammalian cells were grown in 96-well microliter tissue culture plates and infected with virus. Test compounds were added and serially diluted directly with the plates. Following a cycle of virus replication, culture lysates were made and serially diluted in a separate set of uninfected cultures grown in microliter plates. The cultures were incubated, plaques were enumerated in wells containing […] plaques, and virus titers were calculated.

HSV-1 = experiment: CellTiter-Glo (Cytopathic effect/Toxicity) antiviral assay, U of Alabama / NIH; format: cell-based, Herpes simplex virus type 1
From the text: as §1

HSV-1 McKrae = experiment: McKrae viral yield reduction assay relative to mock treated controls, LSU; format: cell-based, Herpes simplex virus type 1
From the text: as §1, §2

[4] = Gross visible toxicity (CC50), 48 hour continuous treatment, LSU; format: cell-based; details: African green monkey, Vero cell monolayers, tested at L (LSU-HSC)
From the text: as §1

cells = experiment: Toxicity to the cells seen in the plaque reduction assay (FIG. 1); format: cell-based
Protocol: (§3) The concentrations were done in duplicate ranging from 1 mM to 10 mM and the average value is plotted for each concentration. At 2 days post infection the number of plaques were counted. The next day, the wells were collected (media and cells) and titered in a plaque assay.
FIG. 1: Both Compound 2 (JIVA-0042) and Compound 3 (JIVA-005) appeared to show toxicity at 10 mM, so even if the graphs show almost 100% reduction at this concentration, it is due to toxicity, perhaps cytostatic inhibition of the cells and thus very few or small plaques were observed. However, by 5 mM of Compound 2 (JIVA-0042), the cells look good (no toxicity) and >95% plaque reduction for Compound 2 and a 50% reduction for Compound 3 (JIVA-005), with the plaques still smaller than the control no drug plaques.

HSV-2 [5] = experiment: Plaque reduction and virus yield reduction assay (FIGS. 1-6); format: cell-based, Herpes simplex virus type 2; design: Mean virus titer: unit not given here
Protocol: as §2, §3

Aqueous solubility = format: physicochemical; details: water; at 3° C.
VZV = experiment: CellTiter-Glo (Cytopathic effect/Toxicity) antiviral assay, U of Alabama / NIH; format: cell-based, Varicella zoster virus; details: for activity against the Varicella-Zoster virus: primary assays at the NIH
From the text: as §1

healthy cells = format: cell-based
Protocol: (§4) Another advantage was noted of thiazolidinedione compounds in Formula (I) where R is H, and R1 is an omega-3 PUFA derivative derived from DHA, EPA or ALA were provided to the Cincinnati Children's Hospital Medical Center, for in vitro HSV-2 antiviral activity by the viral yield reduction assay method, (YRA). […] For the DHA derived (JIVA-004), a ^˜44% reduction in virus yield was detected at 0.1 mM, and 22% reduction was detected at 0.01 mM. […] The more water soluble sodium salt of JIVA-004, in the YRA method, was toxic at the highest concentrations tested (10 mM to 7.5 mM).

HSV-2 [6] = experiment: Viral yield reduction assay (YRA), Cincinnati Children's Hospital Medical Center; format: cell-based, Herpes simplex virus type 2
Protocol: as §2, §4

Vero cell monolayers = experiment: Gross visible toxicity (CC50), 48 hour continuous treatment, LSU; format: cell-based; details: tested at L (LSU-HSC)
From the text: as §1

HSV-2 [7] = experiment: In vitro HSV-2 tests using published formulations of 1-docosanol with surfactants; format: cell-based, Herpes simplex virus type 2; details: published formulations with various surfactants
From the text: The alcohol intermediate, cis,cis,cis,cis,cis,cis-4,7,10,13,16,19-docosahexaenoic-1-ol obtained by reduction of DHA in the above series has the same chain-length as 1-docasonol, but has six conjugated-cis-double bonds for a stiff, elongated backbone, in contrast to a floppy backbone in saturated 1-docasanol.

[8] = system: cold sores caused by the herpes simplex virus; details: OTC cream; cited from earlier work
[9] = cited from earlier work
[10] = Human alphaherpesvirus 2, HSV-2, tested at A (U of Alabama), read-out: EC50
[11] = CC50, HSV-1 line, tested at A (U of Alabama)
[12] = CC50, HSV-2 line, tested at A (U of Alabama)
[13] = Human alphaherpesvirus 2, HSV-2, tested at L (LSU-HSC), read-out: EC50
[14] = Human alphaherpesvirus 1, HSV-1, tested at A (U of Alabama), read-out: EC50
[15] = Human alphaherpesvirus 1, HSV-1, tested at L (LSU-HSC), read-out: EC50
[16] = CC50, VZV line, tested at A (U of Alabama)
[17] = 10 mM, said to be due to toxicity
[18] = VZV line, tested at A (U of Alabama)
[19] = HSV-2, tested at L (LSU-HSC), read-out: EC50
[20] = HSV-1, tested at L (LSU-HSC), read-out: EC50
[21] = VZV, tested at A (U of Alabama), read-out: EC50

CC1SC(=N)NC1=O (centres unmarked) [JIVA-0044, RS-2-Imino-5-methylthiazolidine-4-one]
pEC50 (HSV-2 [1]; [10]): < 3.82 | CC50 [2, 11]: > 150 µM | CC50 [2, 12]: > 150 µM | pEC50 (HSV-2 [3]; [13]): 2.85 | pEC50 (HSV-1; [14]): < 3.82 | melting point: 224 to 228 °C (dec.) | pEC50 (HSV-1 McKrae; [15]): 2.85 | CC50 at 48 h ([4]; HSV-1 line): > 39000 µM | CC50 at 48 h ([4]; HSV-2 line): > 39000 µM

O=C1CSC(=O)N1 [JIVA-0042, 2,4-Thiazolidinedione]
pEC50 (HSV-2 [1]; Human alphaherpesvirus 2): < 3.82 | CC50 [2, 11]: > 150 µM | CC50 [2, 12]: > 150 µM | CC50 [2, 16]: 80 µM | pEC50 (HSV-2 [3]; Human alphaherpesvirus 2): 2.73 | pEC50 (HSV-1; Human alphaherpesvirus 1): < 3.82 | toxicity (cells; 5 mM): no toxicity | toxicity (cells; 10 mM): toxicity | antiviral effect (HSV-2 [5]; 1 mM): no antiviral effect | reduction in virus yield (HSV-2 [5]; 2.5 mM): 30% | plaque reduction (HSV-2 [5]; 5 mM): > 95% | plaque reduction (HSV-2 [5]; [17]): ~100% | pEC50 (HSV-2 [5]; Human alphaherpesvirus 2, read-out: calculated EC50): 2.53 | inhibition at 5000 µM (HSV-2 [5]; Human alphaherpesvirus 2, read-out: inhibition that can be contributed to Compound 2 activity): ~45% | solubility (Aqueous solubility): 30 mg/mL (≈ 256 mM) | pEC50 (HSV-1 McKrae; Human alphaherpesvirus 1): ~3.20 | pEC50 (VZV; Human alphaherpesvirus 3): < 4.52 | CC50 at 48 h ([4]; HSV-1 line): > 14000 µM | CC50 at 48 h ([4]; HSV-2 line): > 14000 µM

N=C(N)SC(F)C(=O)O (centres unmarked) [JIVA-0043, RS-(Carbamimidoylsulfanyl)(fluoro)acetic acid]
pEC50 (HSV-2 [1]; [10]): < 3.82 | CC50 [2, 11]: > 150 µM | CC50 [2, 12]: > 150 µM | CC50 [2, 16]: > 150 µM | pEC50 (HSV-2 [3]; [13]): < 3.82 | pEC50 (HSV-1; [14]): < 3.82 | melting point: 178 °C | pEC50 (HSV-1 McKrae; [15]): < 3.82 | pEC50 (VZV; Human alphaherpesvirus 3, VZV, tested at A (U of Alabama), read-out: EC50): > 7.30 | activity against the Varicella-Zoster virus (VZV): highly active | CC50 at 48 h ([4]; HSV-1 line): ~1000 µM | CC50 at 48 h ([4]; HSV-2 line): > 1000 µM

CC/C=C\C/C=C\C/C=C\C/C=C\C/C=C\C/C=C\CCCC1SC(=O)NC1=O (centres unmarked) [JIVA-004, RS-5-((4Z,7Z,10Z,13Z,16Z,19Z)docosa-4,7,10,13,16,19-hexaen-1-yl)thiazolidine-2,4-dione]
conservative estimated toxicity index CC50 (healthy cells): 300 µM | reduction in virus yield (HSV-2 [6]; 0.01 mM): 22% | reduction in virus yield (HSV-2 [6]; 0.1 mM): ~44%

CN(C)C(=N)NC(=N)N.O=C1CSC(=O)N1 [JIVA-005]
pEC50 (HSV-2 [1]; HSV-2, tested at A (U of Alabama), read-out: EC50): < 3.82 | CC50 ([2]; HSV-1 line, tested at A (U of Alabama)): > 150 µM | CC50 ([2]; HSV-2 line, tested at A (U of Alabama)): > 150 µM | CC50 [2, 18]: > 150 µM | pEC50 (HSV-2 [3]; [19]): ~3.15 | pEC50 (HSV-1; HSV-1, tested at A (U of Alabama), read-out: EC50): < 3.82 | toxicity (cells; 10 mM): toxicity | Mean virus titer (HSV-2 [5]; 1 mM): 6.24 | Mean virus titer (HSV-2 [5]; 2.5 mM): 5.90 | reduction in virus yield (HSV-2 [5]; 2.5 mM): very little reduction | Mean virus titer (HSV-2 [5]; 5 mM): 4.92 | plaque reduction (HSV-2 [5]; 5 mM): 50% | Mean virus titer (HSV-2 [5]; 7.5 mM): 3.86 | Mean virus titer (HSV-2 [5]; 10 mM): 2.87 | plaque reduction (HSV-2 [5]; [17]): ~100% | pEC50 (HSV-2 [5]; Excel, best fit line (FIGS. 4 and 5), read-out: estimated EC50): ~2.40 | pEC50 (HSV-2 [5]; Prism program (FIG. 6), read-out: calculated EC50): 2.30 | pEC50 (HSV-1 McKrae; [20]): ~3.20 | pEC50 (VZV; [21]): 7.05 | activity against the Varicella-Zoster virus (VZV): highly active | CC50 (Vero cell monolayers; HSV-2 line): > 10000 µM

N=C(N)SC(C(=O)O)c1ccccc1 (centres unmarked) [JIVA-0045, RS-2-[Amino(imino)methylsulfenyl]-2-phenylacetic acid]
pEC50 (HSV-2 [1]; [10]): < 3.82 | CC50 [2, 11]: > 150 µM | CC50 [2, 12]: > 150 µM | pEC50 (HSV-2 [3]; [13]): ~3.12 | pEC50 (HSV-1; [14]): < 3.82 | melting point: 230 °C (dec.) | pEC50 (HSV-1 McKrae; [15]): 3.62 | CC50 at 48 h ([4]; HSV-1 line): 3600 µM | CC50 at 48 h ([4]; HSV-2 line): 3600 µM

CN(C)C(=N)NC(=N)N.Cl [Met.HCl, 1,1-dimethylbiguanide hydrochloride, reference compound]
Mean virus titer (HSV-2 [5]; 1 mM): 5.98 | Mean virus titer (HSV-2 [5]; 2.5 mM): 6.05 | Mean virus titer (HSV-2 [5]; 5 mM): 5.76 | Mean virus titer (HSV-2 [5]; 7.5 mM): 4.97 | Mean virus titer (HSV-2 [5]; 10 mM): 4.32 | pEC50 (HSV-2 [5]; Human alphaherpesvirus 2, read-out: estimated EC50): ~2.30

CN(C)C(=N)NC(=N)N.N=C1NC(=O)CS1 [JIVA-0049, Pseudothiohydantain Metforminate]
CC50 ([2]; HSV-1 line, tested at N (NIH)): > 300 µM | CC50 [2, 18]: ≥ 150 µM | pEC50 (HSV-1; HSV-1, tested at N (NIH), read-out: EC50): < 3.52 | pEC50 (VZV; [21]): > 7.30 | activity against the Varicella-Zoster virus (VZV): highly active

CC/C=C\C/C=C\C/C=C\C/C=C\C/C=C\C/C=C\CCCO [DHA derived primary alcohol, cis,cis,cis,cis,cis,cis-4,7,10,13,16,19-docosahexaenoic-1-ol]
antiviral activity (HSV-2 [7]): ineffective

N=C1NC(=O)C(c2ccccc2Cl)S1 (centres unmarked) [JIVA-0046, RS-2-Imino-5-(2′-chlorophenyl) thiazolidine-4-one]
pEC50 (HSV-2 [1]; [10]): < 3.82 | CC50 [2, 11]: > 150 µM | CC50 [2, 12]: > 150 µM | pEC50 (HSV-2 [3]; [13]): ~3.00 | pEC50 (HSV-1; [14]): < 3.82 | melting point: 244 to 246 °C | pEC50 (HSV-1 McKrae; [15]): 2.70 | CC50 at 48 h ([4]; HSV-1 line): ~1000 µM | CC50 at 48 h ([4]; HSV-2 line): ~1000 µM

NC1=NC(=O)CS1 [JIVA-0048, Pseudothiohydantoin]
pEC50 (HSV-2 [3]; [19]): 4.12 | pEC50 (HSV-1 McKrae; [20]): 3.53 | CC50 (Vero cell monolayers; HSV-1 line): 19400 µM | CC50 (Vero cell monolayers; HSV-2 line): 19400 µM

CCCCCCCCCCCCCCCCCCCCCCO [1-docosanol, 1-Docosanol]
mean time of healing [8]: 4.1 days | antiviral activity (HSV-2 [7]): ineffective | aqueous solubility [9]: near zero
